The values below are quoted from earlier work in patent US11603489B2, “Method for inhibiting water permeation in an extraction well of a hydrocarbon oil from an underground reservoir” (priority 2016, dated 2023).

Where two headings read alike, the source gives them in different places.

For data set [1] the following is noted: temperature at which the initiator has a half-life of 10 hours.
Experiment in data set [2]: not given
The source holds these as a separate data set.

The mark [3] stands for this setting: distribution coefficient between water and 1-octanol.
Setting [4] is: temperature at which the initiator has a half-life of 10 hours, in benzene.

As to `O.O.O=S(=O)([O-])CO.[Na+]` [hydroxymethanesulfonic acid monosodium salt dihydrate], in data set [1], the “T1/2(10 h) in water” value is 60 °C. Moreover, under setting [3], the “Log P octanol/water” value was below 0.

Regarding `O=C(OOC(=O)c1ccccc1)c1ccccc1` [benzoyl peroxide], the “Log P octanol/water” value under setting [3] is above 0. Regarding `O=S(=O)([O-])OOS(=O)(=O)[O-].[Na+].[Na+]` [sodium persulfate], the “T1/2(10 h) in water” value in data set [1] was 65 °C. For the compound `CC(C)(N=NC(C)(C)C1=NCCN1)C1=NCCN1.O.O.O=S(=O)(O)O.O=S(=O)(O)O` [VA-046B, 2,2′-Azobis[2-(2-imidazolin-2-yl)propane]disulfate dihydrate], in data set [1], the “T1/2(10 h) in water” value is 47 °C. `CC(C)(N=NC(C)(C)C1=NCCN1CCO)C1=NCCN1CCO.Cl.Cl` [VA-060, 2,2′-Azobis{2-[1-(2-hydroxyethyl)-2-imidazolinyl]propane}-dihydrochloride]: in data set [1], the “T1/2(10 h) in water” value was 60 °C. Also, the “Log P octanol/water” value under setting [3] is given as below 0. Regarding `CC(C)(N=NC(C)(C)C(=O)NCCO)C(=O)NCCO` [VA086, 2,2′-Azobis[2-methyl-N-(2-hydroxyethyl)propionamide]], the “T1/2(10 h) in water” value in data set [1] is 87 °C. On to `CCC(C)(C#N)N=NC(C)(C#N)CC` (stereo not drawn) [Composition V-59, 2,2′-azobis(2-methylbutyronitrile)], for which the “Log P octanol/water” value under setting [3] is above 0. Take `CC(C#N)(CCC(=O)O)N=NC(C)(C#N)CCC(=O)O` (stereo not drawn) [4,4′-Azobis(4-cyanovaleric acid)]: the “T1/2(10 h) in water” value in data set [1] was 50 °C.

On to `CC(C)(C)OOC(C)(C)C` [tert-butyl peroxide], for which, under setting [3], the “Log P octanol/water” value is reported as above 0. Besides, the “T1/2(10 h) in benzene” value in data set [2] (setting [4]) is 70 °C. `CC(C)(N=NC(C)(C)C(=O)NC1CCCCC1)C(=O)NC1CCCCC1` [VAm-111, 2,2′-azobis(N-cyclohexyl-2-methylpropionamide)]: the “Log P octanol/water” value is recorded as above 0. Besides, in data set [2], the “T1/2(10 h) in benzene” value was 111 °C. Take `CC(C)(N=NC(C)(C)C(=N)N)C(=N)N.Cl.Cl` [2,2′-Azobis(2-methylpropionamidine) dihydrochloride]: the “T1/2(10 h) in water” value in data set [1] (dihydrochloride) was 55 °C. With `O=S(=O)([O-])OOS(=O)(=O)[O-].[K+].[K+]` [potassium persulfate], the “T1/2(10 h) in water” value in data set [1] is 65 °C. In the case of `CCCCNC(=O)C(C)(C)N=NC(C)(C)C(=O)NCCCC` [VAm-110, 2,2′-azobis(N-butyl-2-methylpropionamide)], the “Log P octanol/water” value was above 0. Also, the “T1/2(10 h) in benzene” value in data set [2] was 110 °C.

For `CC(C)(N=NC(C)(C)C1=NCCN1)C1=NCCN1.Cl.Cl` [VA-044, 2,2′-Azobis[2-(2-imidazolin-2-yl)propane]dihydrochloride], in data set [1], the “T1/2(10 h) in water” value was 44 °C.

For the compound `CC(C)(N=NC(C)(C)C1=NCCN1)C1=NCCN1` [VA-061, 2,2′-Azobis[2-(2-imidazolin-2-yl)propane]], the “T1/2(10 h) in water” value in data set [1] is 61 °C. Consider `C=CCNC(=O)C(C)(C)N=NC(C)(C)C(=O)NCC=C` [VF-096, 2,2′-azobis[N-(2-propenyl)-2-methylpropionamide]], for which the “Log P octanol/water” value is above 0. For the same compound, the “T1/2(10 h) in benzene” value in data set [2] is 96 °C. Regarding `CCCCCCCCCCCC(=O)OOC(=O)CCCCCCCCCCC` [lauroyl peroxide], the “Log P octanol/water” value under setting [3] is reported as above 0. Also, the “T1/2(10 h) in benzene” value in data set [2] (setting [4]) was 75 °C. Turning to `N.N.O=S(=O)(O)OOS(=O)(=O)O` [ammonium persulfate], the “T1/2(10 h) in water” value in data set [1] was 65 °C. Take `CC(C)(C)OOC(=O)c1ccccc1` [tert-butyl peroxybenzoate]: the “Log P octanol/water” value under setting [3] is above 0. The “T1/2(10 h) in benzene” value in data set [2] (setting [4]) is 73 °C.

On to `CC(C)(C#N)N=NC(N)=O` [Composition V-30, 1-[(1-cyano-1-methylethyl)azo]formamide], for which the “Log P octanol/water” value under setting [3] is on record as above 0. Moreover, the “T1/2(10 h) in benzene” value in data set [2] (setting [4]) was 104 °C. Turning to `CC(C)(N=NC(C)(C)C(=O)NC(CO)(CO)CO)C(=O)NC(CO)(CO)CO` [VA080, 2,2′-Azobis{2-methyl-N-[1,1-bis(hydroxymethyl)-2-hydroxyethyl]propionamide}], the “Log P octanol/water” value is reported as below 0. The “T1/2(10 h) in water” value in data set [1] is 80 °C. As for `CCC(C)(N=NC(C)(CC)C(=N)N1CCCC1)C(=N)N1CCCC1.Cl.Cl` (stereo not drawn) [VA-067, 2,2′-Azobis(1-imino-1-pyrrolidine-2-ethylpropane)-dihydrochloride], in data set [1], the “T1/2(10 h) in water” value was 67 °C. In the case of `CC(C)(N=NC(C)(C)C(=N)NCCC(=O)O)C(=N)NCCC(=O)O.O.O.O.O` [VA-057, 2,2′-Azobis[N-(2-carboxyethyl)-2-methylpropionamidine]tetrahydrate], the “T1/2(10 h) in water” value in data set [1] is 57 °C. For the same compound, the “Log P octanol/water” value under setting [3] is reported as below 0. Take `CC(C)(OOC(C)(C)c1ccccc1)c1ccccc1` [dicumyl peroxide]: under setting [3], the “Log P octanol/water” value is listed as above 0. The “T1/2(10 h) in benzene” value in data set [2] (setting [4]) was 75 °C.
